# Key:
# [1] = system: human growth hormone (532) promoter; assay: High-throughput luciferase reporter assay, human Growth Hormone promoter (Screen III); type: cell-based; conditions: 532 cells, 6 hours; for FOLD INDUCTION RELATIVE TO SOLVENT CONTROL, hGH: Screen III activators; for FOLD INHIBITION RELATIVE TO SOLVENT CONTROL, hGH: Screen III inhibitors
# MMTV (M10) promoter = assay: High-throughput luciferase reporter assay, MMTV promoter (Screen III); type: cell-based, mouse; conditions: M10 cells, 6 hours; for FOLD INDUCTION RELATIVE TO SOLVENT CONTROL, MMTV: Screen III activators; for FOLD INHIBITION RELATIVE TO SOLVENT CONTROL, MMTV: Screen III inhibitors
# Experimental: pMluci and pSV2Neo, an antibiotic resistance plasmid (112), were co-transfected into NIH/3T3 mouse fibroblast cells using the calcium phosphate precipitation method (103) with a commercially available kit (Pharmacia, Piscataway N.J.). Two days later, cells were transferred to media containing 0.4 mg/ml G418 and were grown for an additional 10-14 days. G418-resistant clones were isolated by standard methods. Once sufficient cell numbers were obtained, clones were analyzed based on several criteria: constitutive luciferase production, induction of luciferase expression by dexamethasone (1 μm, Sigma, St. Louis, Mo.), satisfactory attachment to microtiter plates used in the high-throughput screen and acceptable standard deviation in multiple luciferase expression assays (see below for assay protocol). This analysis was carried out using the luciferase assay conditions described above. Of the clones which satisfied the above criteria for the high throuphput screen, one clone, M10, was selected for use.
# [2] = system: human G-CSF (G21) promoter; assay: High-throughput luciferase reporter assay, G-CSF promoter (Screen III); conditions: for scored as positive in repeat assays, G-CSF: 48 independent luciferase assays performed on the same day; for FOLD INDUCTION RELATIVE TO SOLVENT CONTROL, GCSF: Screen III activators; for FOLD INDUCTION RELATIVE TO SOLVENT CONTROL, GCSF / FOLD INHIBITION RELATIVE TO SOLVENT CONTROL, GCSF: G21 cells, 6 hours; for FOLD INHIBITION RELATIVE TO SOLVENT CONTROL, GCSF: Screen III inhibitors
Structure (SMILES),"FOLD INDUCTION RELATIVE TO SOLVENT CONTROL, hGH [1]","FOLD INDUCTION RELATIVE TO SOLVENT CONTROL, MMTV (MMTV (M10) promoter)","scored as positive in repeat assays, G-CSF [2]","FOLD INDUCTION RELATIVE TO SOLVENT CONTROL, GCSF [2]","FOLD INHIBITION RELATIVE TO SOLVENT CONTROL, hGH [1]","FOLD INHIBITION RELATIVE TO SOLVENT CONTROL, MMTV (MMTV (M10) promoter)","FOLD INHIBITION RELATIVE TO SOLVENT CONTROL, GCSF [2]"
"CC(=O)n1ccnc1 [Chemical #58, 1-Acetylimidazole]",0.17 fold,0.42 fold,scored as positives in every single one of these assays,6.03 fold,,,
"CC(=O)N(C)c1ccc(N)cc1 [Chemical #1374, 4'-Amino-N-methylacetanilide]",0.05 fold,1.05 fold,scored as positives in every single one of these assays,11.03 fold,,,
"CN(C)c1ccc(C(=C2C=CC(=[N+](C)C)C=C2)c2ccc(N(C)C)cc2)cc1 [Chemical #1780, Crystal Violet]",0.38 fold,1.15 fold,scored as positives in every single one of these assays,20.39 fold,,,
"O=NN(O)c1ccccc1 [Chemical #1783, Cupferron]",0.32 fold,0.89 fold,scored as positive only in half of the 48 repeat assays,6.55 fold,,,
CC(=O)c1c(C)cc(NC(C)(C)C)nc1NC(C)(C)C [compound 40],0.62 fold,0.27 fold,,5.62 fold,,,
CC(=O)c1ccc[nH]1 [compound 70],9.26 fold,0.85 fold,,0.43 fold,,,
CN(C)c1ccc2cc3ccc(N(C)C)cc3nc2c1 [compound 80],0.66 fold,0.83 fold,,5.87 fold,,,
CN(C)c1ccc(C(=N)c2ccc(N(C)C)cc2)cc1 [compound 183],,,,,4.00 fold,0.70 fold,0.72 fold
O=C(c1ccccc1)c1ccncc1 [compound 209],,,,,1.08 fold,0.81 fold,
CCOC(=O)N1C(=O)c2ccccc2C1=O [compound 237],0.06 fold,0.62 fold,,4.77 fold,,,
Cc1c(C(=O)O)c(O)cc2c1C(=O)c1c(O)c([C@@H]3O[C@H](CO)[C@@H](O)[C@H](O)[C@H]3O)c(O)c(O)c1C2=O [compound 240],,,,,5.26 fold,0.80 fold,0.63 fold
ClCCN1CCCCC1 [compound 254],0.90 fold,0.98 fold,,4.09 fold,,,
NC(=O)N1c2ccccc2CCc2ccccc21 [compound 299],5.46 fold,0.47 fold,,0.53 fold,,,
CCn1c(=O)[nH]c2ccccc21 [compound 322],11.18 fold,1.12 fold,,0.60 fold,,,
O=c1c(O)c(-c2ccc(O)c(O)c2)oc2cc(O)ccc12 [compound 325],5.42 fold,1.0 fold,,0.14 fold,,,
Nc1nc(N)nc(N)n1 [compound 364],1.18 fold,1.07 fold,,3.67 fold,,,

# From patent US6203976A, “Methods of preparing compositions comprising chemicals capable of transcriptional modulation” (OSI Pharmaceuticals, Inc., priority 1994, dated 2001)
